Data published in US5563292A, “Lipoxygenase inhibitors” (Schering Corporation, priority 1990, dated 1996).
Read-outs that look alike come from different tables or passages of the source.

Experiments:
5-Lipoxygenase (5-LO) = target: T1, 5-Lipoxygenase (5-LO) (Homo sapiens, UniProt P09917); experiment: 5-Lipoxygenase Assay with Human Neutrophils (A23187-stimulated 5-HETE and LTB4 production); format: cell-based; details: [14C] arachidonic acid 9 μM, A23187 1 μM
T1 construct: Human polymorphonuclear leukocytes (neutrophils) were obtained from normal healthy volunteers by venipuncture; endogenous in cells; host or cells: human peripheral blood neutrophils (polymorphonuclear leukocytes) from healthy volunteers, intact cells
T1 sequence (P09917 1-674): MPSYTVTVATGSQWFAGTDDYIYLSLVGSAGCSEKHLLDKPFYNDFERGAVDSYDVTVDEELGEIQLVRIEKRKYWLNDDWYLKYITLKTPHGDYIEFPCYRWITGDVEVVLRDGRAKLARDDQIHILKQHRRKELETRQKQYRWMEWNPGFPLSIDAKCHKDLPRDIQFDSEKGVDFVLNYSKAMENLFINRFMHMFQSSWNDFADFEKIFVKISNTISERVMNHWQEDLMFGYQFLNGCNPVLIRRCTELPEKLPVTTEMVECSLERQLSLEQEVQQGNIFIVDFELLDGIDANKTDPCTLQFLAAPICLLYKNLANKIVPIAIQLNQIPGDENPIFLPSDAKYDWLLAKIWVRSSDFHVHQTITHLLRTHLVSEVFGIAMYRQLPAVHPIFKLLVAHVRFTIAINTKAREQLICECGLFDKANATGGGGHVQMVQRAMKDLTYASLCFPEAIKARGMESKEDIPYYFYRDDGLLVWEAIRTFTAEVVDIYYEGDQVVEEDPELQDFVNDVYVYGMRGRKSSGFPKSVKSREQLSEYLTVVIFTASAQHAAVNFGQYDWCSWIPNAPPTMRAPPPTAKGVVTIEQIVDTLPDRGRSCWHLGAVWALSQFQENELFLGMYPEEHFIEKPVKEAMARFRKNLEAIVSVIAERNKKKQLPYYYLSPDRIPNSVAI
Protocol: 5-Lipoxygenase Assay with Human Neutrophils
Human polymorphonuclear leukocytes (neutrophils) were obtained from normal healthy volunteers by venipuncture and collected with heparin anticoagulant. Neutrophils were isolated by Dextran/Ficol sedimentation as described (Billah et al., J. Biol. Chem. 260, 6899-6906 (1985)). In brief, 30 ml of blood was mixed with 5 ml of dextran (Sigma) solution and kept at 37 C for 30 min. The upper white cell-rich layer was removed and 10 ml was layered on 9 ml of Ficol-Pague solution (Pharmacia) and centrifuged at 280×g for 10 min. at 5° C. The supernatant was removed and the neutrophil pellet was resuspended in HEPES buffer containing 25 mM N-2-hydroxyethylpiperazine-N^1 -2-ethanesulfonic acid (HEPES), 125 mM NaCl, 2.5 mM KCl, 0.7 mM MgCl2, […] 10 mM glucose at pH 7.4. The red cells in the suspension were lysed by hypotonic shock. The neutrophils were washed by centrifugation in HEPES buffer two times and finally resuspended at a concentration of 20×10^6 cells/ml in the presence of 1 mM CaCl2.
Neutrophils (0.2 ml of suspension) were preincubated with dimethylsulfonxide (DMSO) vehicle with or without test compound (1 μl) for 4 minutes then incubated for 5 minutes with [^14 C] arachidonic acid (Amersham, 59 Ci/mole) at a 9 μM final concentration, and the calcium ionophore A23187 (Calbiochem) at a 1 μM final concentration. These stimulants were added in 10 μl of water:ethanol (9:1). The reaction was stopped by addition of methanol (0.4 ml), and cellular debris was removed by centrifugation. Aliquots (100 ul) of the incubations were run on a Waters two pump HPLC system fitted with a DuPont Zorbax ODS, 5μ, […] Reliance Cartridge column and C18 "Guard Pak". The column was initially eluted at 2 ml/min with 80% of the mixture water:methanol:acetic acid (46:54:0.08) containing 1 mM EDTA adjusted to pH 6.0 with ammonium hydroxide (Pump A) and 20% methanol (Pump B). At 10 minutes, a linear gradient to reach 100% methanol (Pump B) at 27 minutes was established. Between 27 and 28 minutes, methanol was exchanged for the initial eluting solvent and by 35 minutes the column had been reequilibrated for the next sample. The effluent was analyzed by a continuous flow radioactivity monitor (model ROMONA-D) interfaced with a Hewlett Packard Lab Automation System for quantitation of radioactive products. These were predominantly leukotriene B4 (LTB4) which eluted at 7 minutes, and 5-hydroxyeicosatetraenoic acid (5-HETE) which eluted at 20 minutes.

mouse ear = experiment: Arachidonic Acid Mouse Ear Test; format: in vivo; details: topical, 30 minutes prior to arachidonic acid, biopsy 1 hour after challenge
Protocol: Charles River, female, CD, (SD) BR mice, 6 weeks old, are caged 8/group and allowed to acclimate 1-3 weeks prior to use.
Arachidonic acid (AA) is dissolved in reagent grade acetone (2 mg/0.01 ml) and stored at -20° C. for a maximum of 1 week prior to use. Inflammatory reactions are induced by applying 10 μl of AA to both surfaces of one ear ([…] total).
Test drugs are dissolved in either reagent grade acetone or aqueous ethanol (only if insoluble in acetone) at the same doses selected by Opas et al., Fed. Proc. 43, Abstract 2983, p. 1927 (1984) and Young et al., J. Invest. Dermatol. 82, pp. 367-371 (1984). These doses are employed to ensure maximum responses and to overcome any difference in topical absorption which could occur with any drug applied in an aqueous ethanol vehicle. The test drug is applied 30 minutes prior to challenge with AA.
The severity of the inflammation is measured as a function of increased ear weight. A 6 mm punch biopsy is removed 1 hour after AA challenge and weighed to the nearest 0.1 mg. Mean±standard error and all possible comparisons are made via Duncan's Multiple Range Statistic.

[1] = read-out: 5-LO inhibition, % inhibition 5-HETE
[2] = read-out: 5-LO inhibition, % inhibition LTB4

Row | SMILES | inhibition at 15 µM (5-Lipoxygenase (5-LO); [1]) [%] | inhibition at 15 µM (5-Lipoxygenase (5-LO); [2]) [%] | Mouse ear assay, % inhibition (ear weight) (mouse ear; dose 1.0 mg/ear) [%] | Mouse ear assay, % inhibition (ear weight) (mouse ear; dose 0.5 mg/ear) [%] | inhibition at 5 µM (5-Lipoxygenase (5-LO); dose 5 μM) [%]
1 | COc1cc(OC)cc(C(C)(C)CC(C)(CCCC=O)c2cc(OC)cc(OC)c2)c1 (stereo not drawn) [Formula 43] | 97 | 97 | – | – | –
2 | COc1cc(OC)cc(C(C)(C)CC(C)(CCCC(=O)O)c2cc(OC)cc(OC)c2)c1 (stereo not drawn) [Formula 45] | 33 | 14 | – | – | –
3 | COc1cc(OC)cc(C(C)(C)CC(C)(CCCCO)c2cc(OC)cc(OC)c2)c1 (stereo not drawn) [Formula 41, 5,7-dimethyl-5,7-bis(3,5-dimethoxyphenyl)-1-octanol] | 99 | 97 | 72 | – | –
4 | COc1cc(OC)cc(C(C)(C)CC(C)(CCCCOC(C)=O)c2cc(OC)cc(OC)c2)c1 (stereo not drawn) [Formula 42] | 95 | 100 | – | 40 | –
5 | COC(=O)CCCC(C)(CC(C)(C)c1cc(OC)cc(OC)c1)c1cc(OC)cc(OC)c1 (stereo not drawn) [Formula 44] | 98 | 100 | – | – | –
6 | COc1cc(OC)cc(C(C)(C)CC(C)(CCCC(=O)NO)c2cc(OC)cc(OC)c2)c1 (stereo not drawn) [Formula 46] | 99 | 96 | – | – | 63
